Reference: PMC11480511 (Scientific Reports, 2024)
≈ marks a conversion by molar mass, not a printed value. Where two headings read alike, the source gives them in different places.

How the values were obtained:
HL-60(TB) = assay: NCI single-dose growth inhibition screen; type: cell-based; conditions: Homo sapiens; Leukemia HL-60(TB); single dose 10^−5 M
MOLT-4 = assay: NCI single-dose growth inhibition screen; type: cell-based; conditions: Homo sapiens; Leukemia MOLT-4; single dose 10^−5 M
RPMI-8226 = assay: NCI single-dose growth inhibition screen; type: cell-based; conditions: Homo sapiens; Leukemia RPMI-8226; single dose 10^−5 M
HOP-62 = assay: NCI single-dose growth inhibition screen; type: cell-based; conditions: Homo sapiens; Non-Small Cell Lung Cancer HOP-62; single dose 10^−5 M
HOP-92 = assay: NCI single-dose growth inhibition screen; type: cell-based; conditions: Homo sapiens; Non-Small Cell Lung Cancer HOP-92; single dose 10^−5 M
NCI-H23 = assay: NCI single-dose growth inhibition screen; type: cell-based; conditions: Homo sapiens; Non-Small Cell Lung Cancer NCI-H23; single dose 10^−5 M
NCI-H322M = assay: NCI single-dose growth inhibition screen; type: cell-based; conditions: Homo sapiens; Non-Small Cell Lung Cancer NCI-H322M; single dose 10^−5 M
NCI-H460 = assay: NCI single-dose growth inhibition screen; type: cell-based; conditions: Homo sapiens; Non-Small Cell Lung Cancer NCI-H460; single dose 10^−5 M
NCI-H522 = assay: NCI single-dose growth inhibition screen; type: cell-based; conditions: Homo sapiens; Non-Small Cell Lung Cancer NCI-H522; single dose 10^−5 M
HCT-116 = assay: NCI single-dose growth inhibition screen; type: cell-based; conditions: Homo sapiens; Colon Cancer HCT-116; single dose 10^−5 M
SNB-75 = assay: NCI single-dose growth inhibition screen; type: cell-based, human; conditions: Homo sapiens, SNB-75, CNS Cancer SNB-75; single dose 10^−5 M
LOX IMVI = assay: NCI single-dose growth inhibition screen; type: cell-based, human; conditions: Melanoma LOX IMVI, single dose 10^−5 M
MALME-3 M = assay: NCI single-dose growth inhibition screen; type: cell-based; conditions: Homo sapiens; Melanoma MALME-3 M; single dose 10^−5 M
SK-MEL-2 = assay: NCI single-dose growth inhibition screen; type: cell-based; conditions: Homo sapiens; Melanoma SK-MEL-2; single dose 10^−5 M
SK-MEL-5 = assay: NCI single-dose growth inhibition screen; type: cell-based, human; conditions: single dose 10^−5 M
UACC-257 = assay: NCI single-dose growth inhibition screen; type: cell-based; conditions: Homo sapiens; Melanoma UACC-257; single dose 10^−5 M
UACC-62 = assay: NCI single-dose growth inhibition screen; type: cell-based; conditions: Homo sapiens; Melanoma UACC-62; single dose 10^−5 M
IGROV1 = assay: NCI single-dose growth inhibition screen; type: cell-based; conditions: Homo sapiens, IGROV-1; Ovarian Cancer IGROV1; single dose 10^−5 M
OVCAR-8 = assay: NCI single-dose growth inhibition screen; type: cell-based; conditions: Homo sapiens; Ovarian Cancer OVCAR-8; single dose 10^−5 M
ACHN = assay: NCI single-dose growth inhibition screen; type: cell-based; conditions: Homo sapiens; Renal Cancer ACHN; single dose 10^−5 M
RXF 393 = assay: NCI single-dose growth inhibition screen; type: cell-based; conditions: Homo sapiens; Renal Cancer RXF 393; single dose 10^−5 M
SN12C = assay: NCI single-dose growth inhibition screen; type: cell-based; conditions: Homo sapiens; Renal Cancer SN12C; single dose 10^−5 M
TK-10 = assay: NCI single-dose growth inhibition screen; type: cell-based; conditions: Homo sapiens; Renal Cancer TK-10; single dose 10^−5 M
MCF7 = assay: NCI single-dose growth inhibition screen; type: cell-based, human; conditions: single dose 10^−5 M
HS 578T = assay: NCI single-dose growth inhibition screen; type: cell-based; conditions: Homo sapiens; Breast Cancer HS 578T; single dose 10^−5 M
BT-549 = assay: NCI single-dose growth inhibition screen; type: cell-based; conditions: Homo sapiens; Breast Cancer BT-549; single dose 10^−5 M
T-47D = assay: NCI single-dose growth inhibition screen; type: cell-based; conditions: Homo sapiens, T47D; Breast Cancer T-47D; single dose 10^−5 M
MDA-MB-468 = assay: NCI single-dose growth inhibition screen; type: cell-based; conditions: Homo sapiens; Breast Cancer MDA-MB-468; single dose 10^−5 M
PC-3 = assay: NCI single-dose growth inhibition screen; type: cell-based; conditions: Homo sapiens; Prostate Cancer PC-3; single dose 10^−5 M
E. coli ATCC 25,922 = assay: Antibacterial screening, agar cup diffusion method; type: cell-based; conditions: read-out: Minimum inhibitory concentrations (MIC, µM) E. coli ATCC 25,922
Procedure: (§1) Anti-bacterial activity of the recently synthesized compounds 3a-k was evaluated at AUMC (Assiut University Mycological Centre), Assiut, Egypt. Assays were done against Gram-negative strains of K. pneumoniae (ATCC 100310, E. coli (ATCC 25922), Pseudomonas aeruginosa (ATCC 27853) and the Gram-positive S. aureus (ATCC 6538) strain utilizing standard agar cup diffusion method. The isolates from the four bacterial species examined were kept in TSB (Trypticase Soya Broth, Becton and Dickinson) with 10% glycerol at -70 °C and then subcultured on TSA (Trypticase Soya Agar, Becton and Dickinson) and TSB for 24 h at 37 °C former to inoculation. Bacterial isolates were then plated on sterile petri plates with 1 × 10^8 CFU/mL (0.5 McFarland turbidity) and 20 mL of Mueller Hinton Agar media (Oxoid) was then loaded. To ensure that the microorganisms were evenly dispersed, the plates were gently rotated before being left to harden on a level surface. Four equally spaced spherical-shaped wells (10 mm diameter) were painstakingly drilled using a sterilized cork bore after media solidification. All tested compounds under test underwent two-fold serial dilutions in a sequential manner. Three replications of 100 µL of each concentration were added to a well using a micropipette. Plates were then incubated for 24-hour at 37 °C. The average of the inhibition zones was then calculated. To determine the MICs, the natural logarithm of each diluted test substance’s concentration was plotted against the average area of the related inhibition zone. Following that, a regression line was created and the intercept on the ‘ln concentration” axis was determined, and the antilogarithm was calculated to indicate the MIC value[34],[63].

[1] = tested on: P. aeruginosa ATCC 27,853; assay: Antibacterial screening, agar cup diffusion method; type: cell-based; conditions: Pseudomonas aeruginosa, ATCC27; Gram –ve strain; read-out: Minimum inhibitory concentrations (MIC, µM) P. aeruginosa ATCC 27,853
Procedure: as §1

human melanoma LOX IMVI = assay: cells
[2] = tested on: A498 renal cancer cell line; assay: cells; conditions: Homo sapiens

**Q.** Which results are given for `O=C(O)c1cn(C2CC2)c2cc(N3CCN(C(=O)CCCN4C(=O)SC(=Cc5cccc6ccccc56)C4=O)CC3)c(F)cc2c1=O` [3j, 1-cyclopropyl-6-fluoro-7-[4-[4-[5-(1-naphthylmethylene)-2,4-dioxo-thiazolidin-3-yl]butanoyl]piperazin-1-yl]-4-oxo-quinoline-3-carboxylic acid]?
**A.** inhibition at 10 µM (HL-60(TB)): < 0%; inhibition at 10 µM (MOLT-4): 17.5%; inhibition at 10 µM (RPMI-8226): 6.1%; inhibition at 10 µM (HOP-62): 15.1%; inhibition at 10 µM (HOP-92): 13.3%; inhibition at 10 µM (NCI-H23): 13.1%; inhibition at 10 µM (NCI-H322M): 26.6%; inhibition at 10 µM (NCI-H460): 3.9%; inhibition at 10 µM (NCI-H522): 18.5%; inhibition at 10 µM (HCT-116): 10.6%; inhibition at 10 µM (SNB-75): 28.4%; inhibition at 10 µM (LOX IMVI; Homo sapiens, LOX IMVI): 38.5%; Growth Inhibition (%) (LOX IMVI): 38.5%; inhibition at 10 µM (MALME-3 M): 13.1%; inhibition at 10 µM (SK-MEL-2): < 0%; inhibition at 10 µM (SK-MEL-5; Homo sapiens, SK-MEL-5, Melanoma SK-MEL-5): 46.1%; Growth Inhibition (%) (SK-MEL-5; Melanoma SK-MEL-5): 46.1%; inhibition at 10 µM (UACC-257): 19.1%; inhibition at 10 µM (UACC-62): 20.4%; inhibition at 10 µM (IGROV1): 25.9%; inhibition at 10 µM (OVCAR-8): 9%; inhibition at 10 µM (ACHN): 11.5%; inhibition at 10 µM (RXF 393): 11.2%; inhibition at 10 µM (SN12C): 24.1%; inhibition at 10 µM (TK-10): < 0%; Growth Inhibition (%) (MCF7; Breast Cancer MCF7): 41.7%; inhibition at 10 µM (MCF7; Homo sapiens, MCF7, Breast Cancer MCF7): 41.7%; inhibition at 10 µM (HS 578T): 30.2%; inhibition at 10 µM (BT-549): 20.5%; inhibition at 10 µM (T-47D): 7.5%; inhibition at 10 µM (MDA-MB-468): 4.7%; inhibition at 10 µM (PC-3): < 0%; MIC (E. coli ATCC 25,922; Escherichia coli, ATCC25, Gram –ve strain): 1.94 to 2.6 µM (≈ 1.27 to 1.7 µg/mL); MIC (E. coli ATCC 25,922; Gram –ve strain): 2.60 µM (≈ 1.7 µg/mL); MIC [1]: > 20 µM; melting point: 219 °C; viability at 0.4 µM (human melanoma LOX IMVI): 86.5%; viability at 1.6 µM (human melanoma LOX IMVI): 79.4%; viability at 25 µM (human melanoma LOX IMVI): 61.5%; viability at 100 µM (human melanoma LOX IMVI): 48.5%; IC50 (human melanoma LOX IMVI; read-out: In vitro cytotoxicity (IC50) LOX IMVI (µM ± SEM)): 110 ± 6.23 µM; viability at 0.4 µM ([2]; A498): 84.7%; viability at 1.6 µM ([2]; A498): 71.9%; viability at 25 µM ([2]; A498): 51.4%; viability at 100 µM ([2]; A498): 42.5%; IC50 ([2]; A498, read-out: In vitro cytotoxicity (IC50) A498 cell line (µM ± SEM)): 33.9 ± 1.91 µM
